One experiment addresses T1, GABAA receptor α4β3δ (Homo sapiens, UniProt P28472+P48169).
T1 construct: expressed in transfected cells; host or cells: CHO cells (transient, lipofection)
The experiment can be described thus: Patch clamp electrophysiology, manual patch in CHO cells. In kind it is cell-based. To be noted: 10 μM test article, GABA EC20 2 μM, read-out: GABA (α4β3δ) Manual patch in CHO, % efficacy at 10 μM. On the procedure: Patch Clamp Electrophysiology of Recombinant α1β2γ2 and α4β3δ GABAA Receptors
Cellular electrophysiology is used to measure the pharmacological properties of our GABAA receptor modulators in heterologous cell systems. Each compound is tested for its ability to affect GABA mediated currents at a submaximal agonist dose (GABA EC20=2 μM). LTK cells are stably transfected with the α1β2γ2 subunits of the GABA receptor and CHO cells are transiently transfected with the α4β3δ subunits via the Lipofecatamine method. Cells were passaged at a confluence of about 50-80% and then seeded onto 35 mm sterile culture dishes containing 2 ml culture complete medium without antibiotics or antimycotics. Confluent clusters of cells are electrically coupled (Pritchett et al., Science, 1988, 242, 1306-1308.). Because responses in distant cells are not adequately voltage clamped and because of uncertainties about the extent of coupling (Verdoorn et al., Neuron 1990, 4, 919-928.), cells were cultivated at a density that enables the recording of single cells (without visible connections to other cells).
Whole cell currents were measured with HEKA EPC-10 amplifiers using PatchMaster software or by using the high throughput QPatch platform (Sophion). Bath solution for all experiments contained (in mM): NaCl 137 mM, KCl 4 mM, CaCl2 1.8 mM, MgCl2 1 mM, HEPES 10 mM, D-Glucose 10 mM, pH (NaOH) 7.4. In some cases 0.005% cremophor was also added. Intracellular (pipette) solution contained: KCl 130 mM, MgCl2 1 mM, Mg-ATP 5 mM, HEPES 10 mM, EGTA 5 mM, pH 7.2. During experiments, cells and solutions were maintained at room temperature (19° C.-30° C.). For manual patch clamp recordings, cell culture dishes were placed on the dish holder of the microscope and continuously perfused (1 ml/min) with bath solution. After formation of a Gigaohm seal between the patch electrodes and the cell (pipette resistance range: 2.5 MΩ-6.0 MΩ; seal resistance range: >1 GΩ) the cell membrane across the pipette tip was ruptured to assure electrical access to the cell interior (whole-cell patch-configuration). For experiments using the QPatch system, cells were transferred as suspension to the QPatch system in the bath solution and automated whole cell recordings were performed.
Cells were voltage clamped at a holding potential of −80 mV. For the analysis of test articles, GABA receptors were stimulated by 2 μM GABA after sequential pre-incubation of increasing concentrations of the test article. Pre-incubation duration was 30 s and the duration of the GABA stimulus was 2 s. Test articles were dissolved in DMSO to form stock solutions (10 mM). Test articles were diluted to 0.01, 0.1, 1, and 10 μM in bath solution. All concentrations of test articles were tested on each cell. The relative percentage potentiation was defined as the peak amplitude in response to GABA EC20 in the presence of the test article divided by the peak amplitude in response to GABA EC20 alone, multiplied by 100.

The target in a further experiment is T2, GABAA receptor α1β2γ2 (Homo sapiens, UniProt P14867+P47870).
T2 construct: expressed in transfected cells
T2 sequence (P14867 28-456): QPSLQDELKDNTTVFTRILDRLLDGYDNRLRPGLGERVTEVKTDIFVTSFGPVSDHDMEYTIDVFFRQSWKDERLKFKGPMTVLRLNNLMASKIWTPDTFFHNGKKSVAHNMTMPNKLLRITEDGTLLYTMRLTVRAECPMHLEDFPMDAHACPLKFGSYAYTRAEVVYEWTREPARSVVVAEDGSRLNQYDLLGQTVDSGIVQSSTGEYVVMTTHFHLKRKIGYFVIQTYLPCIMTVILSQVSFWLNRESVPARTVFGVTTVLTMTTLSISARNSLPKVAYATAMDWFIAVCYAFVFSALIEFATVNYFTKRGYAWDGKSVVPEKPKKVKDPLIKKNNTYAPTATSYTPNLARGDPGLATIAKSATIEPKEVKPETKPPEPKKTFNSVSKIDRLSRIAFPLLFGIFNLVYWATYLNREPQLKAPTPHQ
T2 sequence (P47870 25-512 limits assumed): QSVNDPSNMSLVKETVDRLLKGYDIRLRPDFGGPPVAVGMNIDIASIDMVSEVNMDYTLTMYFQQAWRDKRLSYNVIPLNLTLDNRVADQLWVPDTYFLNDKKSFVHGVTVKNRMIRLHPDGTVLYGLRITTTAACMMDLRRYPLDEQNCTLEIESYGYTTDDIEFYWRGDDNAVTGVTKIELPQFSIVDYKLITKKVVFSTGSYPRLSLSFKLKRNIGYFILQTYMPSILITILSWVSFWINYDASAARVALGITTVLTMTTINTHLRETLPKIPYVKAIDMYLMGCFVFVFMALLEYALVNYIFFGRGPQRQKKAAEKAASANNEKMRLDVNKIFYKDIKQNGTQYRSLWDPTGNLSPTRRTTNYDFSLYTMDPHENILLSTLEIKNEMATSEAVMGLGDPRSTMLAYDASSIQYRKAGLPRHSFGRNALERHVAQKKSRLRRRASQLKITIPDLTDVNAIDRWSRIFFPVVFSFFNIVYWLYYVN
T2 sequence (P18507 40-475 partner): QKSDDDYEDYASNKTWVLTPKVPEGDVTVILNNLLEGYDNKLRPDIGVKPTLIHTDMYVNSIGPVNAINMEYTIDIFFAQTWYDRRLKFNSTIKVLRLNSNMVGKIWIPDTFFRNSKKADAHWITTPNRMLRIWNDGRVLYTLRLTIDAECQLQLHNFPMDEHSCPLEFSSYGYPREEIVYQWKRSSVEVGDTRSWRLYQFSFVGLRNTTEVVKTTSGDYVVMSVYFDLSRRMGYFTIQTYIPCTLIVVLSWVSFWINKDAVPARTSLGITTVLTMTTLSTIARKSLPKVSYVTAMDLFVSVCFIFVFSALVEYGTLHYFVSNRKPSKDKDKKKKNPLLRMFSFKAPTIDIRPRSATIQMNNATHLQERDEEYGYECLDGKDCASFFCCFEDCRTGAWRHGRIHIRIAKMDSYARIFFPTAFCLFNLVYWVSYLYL
Briefly: Patch clamp electrophysiology, Qpatch in Ltk cells. In kind it is cell-based. The following applies: 10 μM test article, GABA EC20 2 μM, read-out: GABA (α1β2γ2) Qpatch in Ltk, % efficacy at 10 μM. A digest of the protocol: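 Whole-cell voltage clamp at −80 mV, room temperature: α1β2γ2 stably expressed in Ltk cells (QPatch), α4β3δ transiently in CHO cells (manual patch). Compound at 0.01–10 μM pre-applied 30 s, then 2 μM GABA (EC20) for 2 s. Potentiation = peak current with compound / GABA alone × 100.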

Experiment [1] has as its target [35S]-TBPS binding, rat brain cortical membranes (GABA receptor complex). The experiment can be described thus: Steroid inhibition of [35S]-TBPS binding. The following applies: 3 nM [35S]-TBPS, 5 μM GABA. As for the experimental part:
Steroid Inhibition of TBPS Binding
[35S]-t-Butylbicyclophosphorothionate (TBPS) binding assays using rat brain cortical membranes in the presence of 5 μM GABA has been described (Gee et al, J. Pharmacol. Exp. Ther. 1987, 241, 346-353; Hawkinson et al, Mol. Pharmacol. 1994, 46, 977-985; Lewin, A. H et al., Mol. Pharmacol. 1989, 35, 189-194).
Briefly, cortices are rapidly removed following decapitation of carbon dioxide-anesthetized Sprague-Dawley rats (200-250 g). The cortices are homogenized in 10 volumes of ice-cold 0.32 M sucrose using a glass/teflon homogenizer and centrifuged at 1500×g for 10 min at 4° C. The resultant supernatants are centrifuged at 10,000×g for 20 min at 4° C. to obtain the P2 pellets. The P2 pellets are resuspended in 200 mM NaCl/50 mM Na-K phosphate pH 7.4 buffer and centrifuged at 10,000×g for 10 min at 4° C. This washing procedure is repeated twice and the pellets are resuspended in 10 volumes of buffer. Aliquots (100 μL) of the membrane suspensions are incubated with 3 nM [^35S]-TBPS and 5 μL aliquots of test drug dissolved in dimethyl sulfoxide (DMSO) (final 0.5%) in the presence of 5 μM GABA. The incubation is brought to a final volume of 1.0 mL with buffer. Nonspecific binding is determined in the presence of 2 μM unlabeled TBPS and ranged from 15 to 25%. Following a 90 min incubation at room temp, the assays are terminated by filtration through glass fiber filters (Schleicher and Schuell No. 32) using a cell harvester (Brandel) and rinsed three times with ice-cold buffer. Filter bound radioactivity is measured by liquid scintillation spectrometry. Non-linear curve fitting of the overall data for each drug averaged for each concentration is done using Prism (GraphPad). […] The concentration of test compound producing 50% inhibition (IC50) of specific binding and the maximal extent of inhibition (Imax) are determined for the individual experiments with the same model used for the overall data and then the means±SEM.s of the individual experiments are calculated.
Various compounds are or can be screened to determine their potential as modulators of [^35S]-TBPS binding in vitro. These assays are or can be performed in accordance with the above discussed procedures.

SMILES strings stand for the structures.

T1 sequence (P48169 36-554): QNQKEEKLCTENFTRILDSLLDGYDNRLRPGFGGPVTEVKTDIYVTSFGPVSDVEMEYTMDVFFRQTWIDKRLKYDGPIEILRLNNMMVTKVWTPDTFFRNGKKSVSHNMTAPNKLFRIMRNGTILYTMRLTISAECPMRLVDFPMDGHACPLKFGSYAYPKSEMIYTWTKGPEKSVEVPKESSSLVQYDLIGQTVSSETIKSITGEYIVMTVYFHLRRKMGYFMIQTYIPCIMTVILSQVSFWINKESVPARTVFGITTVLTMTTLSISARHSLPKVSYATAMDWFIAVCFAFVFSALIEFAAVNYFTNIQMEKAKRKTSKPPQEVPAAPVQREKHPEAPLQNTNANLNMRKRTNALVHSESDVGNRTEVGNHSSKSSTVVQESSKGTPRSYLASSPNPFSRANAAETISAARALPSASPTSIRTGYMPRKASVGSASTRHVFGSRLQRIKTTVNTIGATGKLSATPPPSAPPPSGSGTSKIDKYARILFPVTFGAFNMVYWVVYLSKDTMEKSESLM
T1 sequence (P28472 26-473): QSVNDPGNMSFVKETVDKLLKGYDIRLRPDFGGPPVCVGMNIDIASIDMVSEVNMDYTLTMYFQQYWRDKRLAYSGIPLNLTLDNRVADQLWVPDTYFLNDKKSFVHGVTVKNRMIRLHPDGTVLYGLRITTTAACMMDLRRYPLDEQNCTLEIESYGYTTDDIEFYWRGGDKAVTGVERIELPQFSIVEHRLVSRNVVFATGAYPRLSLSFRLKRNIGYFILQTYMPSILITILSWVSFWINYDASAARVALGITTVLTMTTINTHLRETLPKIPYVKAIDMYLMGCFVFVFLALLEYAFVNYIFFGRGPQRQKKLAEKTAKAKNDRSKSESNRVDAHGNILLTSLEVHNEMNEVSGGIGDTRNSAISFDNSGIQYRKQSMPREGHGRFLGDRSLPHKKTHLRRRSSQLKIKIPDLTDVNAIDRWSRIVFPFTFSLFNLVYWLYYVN
T1 sequence (O14764 25-452 partner): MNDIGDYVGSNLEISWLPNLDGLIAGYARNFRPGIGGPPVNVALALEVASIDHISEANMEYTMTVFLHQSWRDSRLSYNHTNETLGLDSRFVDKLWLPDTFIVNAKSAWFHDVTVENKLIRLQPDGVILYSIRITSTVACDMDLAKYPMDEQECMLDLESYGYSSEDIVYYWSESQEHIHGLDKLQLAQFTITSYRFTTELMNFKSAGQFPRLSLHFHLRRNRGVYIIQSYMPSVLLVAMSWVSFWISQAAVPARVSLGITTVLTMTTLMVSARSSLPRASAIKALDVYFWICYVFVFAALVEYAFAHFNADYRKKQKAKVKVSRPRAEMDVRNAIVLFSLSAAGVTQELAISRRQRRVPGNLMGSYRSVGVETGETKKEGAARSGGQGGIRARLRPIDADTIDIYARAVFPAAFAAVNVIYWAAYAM

As for `C[C@@]1(O)CC[C@H]2[C@H](CC[C@@H]3[C@@H]2CC[C@]2(C)[C@@H](C(=O)Cn4cccn4)CC[C@@H]32)C1` [SA-13], the Emax at 10 µM on GABAA receptor α4β3δ was above 500%; on GABAA receptor α1β2γ2, 100 to 500%. The compound further returned a concentration for half-maximal inhibition (IC50) in experiment [1] of 10 to 50 nM.

As for `Cc1cnn(CC(=O)[C@H]2CC[C@H]3[C@@H]4CC[C@@H]5C[C@](C)(O)CC[C@@H]5[C@H]4CC[C@]23C)c1` [SA-6], the Emax at 10 µM was above 500% on GABAA receptor α4β3δ and 100 to 500% on GABAA receptor α1β2γ2. Also, the IC50 in experiment [1] is 10 to 50 nM.

`C[C@@]1(O)CC[C@H]2[C@H](CC[C@@H]3[C@@H]2CC[C@]2(C)[C@@H](C(=O)Cn4cc(C#N)cn4)CC[C@@H]32)C1` [SA-4]: the Emax at 10 µM at GABAA receptor α4β3δ and on GABAA receptor α1β2γ2 was 100 to 500% throughout. The compound further came in with an IC50 in experiment [1] below 10 nM.

The record behind these values is patent US12201640B2, “19-nor C3,3-disubstituted C21-n-pyrazolyl steroids and methods of use thereof” (Sage Therapeutics, Inc., priority 2013, dated 2025).
